The source of these data is patent US5504212A, “Inhibitors of farnesyl-protein transferase” (Merck & Co., Inc., priority 1992, dated 1996).

The target of assay [1] is recombinant human farnesyl transferase (Homo sapiens, UniProt P49354+P49356). Put plainly: In vitro inhibition of ras farnesyl transferase. Format: biochemical. To be noted: read-out: ID50, Inhibition of RAS farnesylation (concentration which gives 50% inhibition of FTase). The protocol: In vitro inhibition of ras farnesyl transferase
The assay was conducted as described in Pompliano, et. al., Biochemistry 31, 3800 (1992) with the exception of utilizing recombinant human farnesyl transferase in place of the partially purified bovine enzyme described therein.

The test system of assay [2] is Ras farnesylation in the v-ras cell line. Put plainly: In vivo ras farnesylation assay (v-ras cell line). To be noted: v-ras cells; 4 h pretreatment at 37° C., then 20 h labelling; read-out: IC50, Inhibition of Ras Farnesylation in the v-ras cell line. Format: cell-based. The protocol: In vivo ras farnesylation assay
The cell line used in this assay was the v-ras line, which expressed vital Ha-ras p21. The assay was performed essentially as described in DeClue, J. E. et. al., Cancer Research 51, 712-717, (1991). Cells in 10 cm dishes at 50-75% confluency were treated with the test compound (final concentration of solvent, methanol or dimethyl sulfoxide, was 0.1%). After 4 hours at 37° C., the cells were labelled in 3 ml methionine-free DMEM supplemeted with 10% regular DMEM, 2% fetal bovine serum and 400 μCi ^35 S!methionine (1000 Ci/mmol). After an additional 20 hours, the cells were lysed in 1 ml lysis buffer (1% NP40/20 mMHEPES, pH 7.5/5 mM MgCl2 /1 mM DTT/10 μg/ml aprotinen/2 μg/ml leupeptin/2 μg/ml antipain/0.5 mM PMSF) and the lysates cleared by centrifugation at 100,000×g for 45 min. Aliqouts of lysates containing equal numbers of acid-precipitable counts were bought to 1 ml with IP buffer (lysis buffer lacking DTT) and immunoprecipitated with the ras-specific monoclonal antibody Y13-259 (Furth, M. E. et. al., J. Virol. 43, 294-304, (1982)). Following a 2 hour antibody incubation at 4° C., 200 μl of a 25% suspension of protein A-Sepharose coated with rabbit anti rat IgG was added for 45 min. The immunoprecipitates were washed four times with IP was buffer ([…] HEPES, pH 7.5/1 mM EDTA/ 1% Triton X-100.0.5% deoxycholate/0.1%/SDS/0.1M NaCl) boiled in SDS-PAGE sample buffer and loaded on 13% acrylamide gels. When the dye front reached the bottom, the gel was fixed, soaked in Enlightening, dried and autoradiographed. The intensities of the bands corresponding to farnesylated and nonfarnesylated ras proteins were compared to determine the percent inhibition of farnesyl transfer to protein.

The subject of a further assay is EMG-CoA reductase. The settings on record: cited from earlier work.

As to `CC[C@H](C)[C@@H](/C=C/[C@H](C(=O)N[C@@H](CCO)C(=O)O)C(C)C)NC[C@@H](N)CS` [5(S)-2(R)-amino-3-mercaptopropyl-amino!-6(S)-methyl-2(R)-i-propyl-3,4-E-octenoyl-homoserine], the IC50 in assay [1] was found to be 0.0035 µM.
On to `CCCC[C@H](/C=C/[C@@H](NC[C@@H](N)CS)[C@@H](C)CC)C(=O)N[C@@H](CCO)C(=O)O` [5(S)-2(R)-amino-3-mercaptopropyl-amino!-6(S)-methyl-2(R)-n-butyl-3,4-E-octenoyl-homoserine], for which, in assay [1], the IC50 stood at 0.0015 µM.
Still for that read-out and setting: the figure for `CCCC[C@H](/C=C/[C@@H](NC[C@@H](N)CS)[C@@H](C)CC)C(=O)N[C@@H](CCSC)C(=O)O` [5(S)-2(R)-amino-3-mercaptopropyl-amino!-6(S)-methyl-2(R)-n-butyl-3,4-E-octenoyl-methionine] is 0.0025 µM.
`CC[C@H](C)[C@@H](/C=C/[C@@H](Cc1ccccc1)C(=O)N[C@H]1CCOC1=O)NC[C@@H](N)CS` [5(S)-2(R)-amino-3-mercaptopropylamino!-6(S)-methyl-2(R)-benzyl-3,4-E-octenoyl-homoserine lactone]: the IC50 in assay [2] is 5 to 10 µM.
On the same count and under the same terms, the same measure for `CC[C@H](C)[C@@H](/C=C/[C@@H](Cc1ccccc1)C(=O)N[C@@H](CCSC)C(=O)OC)NC[C@@H](N)CS` [5(S)-2(R)-amino-3-mercaptopropylamino!-6(S)-methyl-2(R)-benzyl-3,4-E-octenoyl-methionine, methyl ester]: 1 µM.
Consider `CC[C@H](C)[C@@H](/C=C/[C@@H](Cc1ccccc1)C(=O)N[C@@H](CCSC)C(=O)O)NC[C@@H](N)CS` [5(S)-2(R)-amino-3-mercaptopropylamino!-6(S)-methyl-2(R)-benzyl-3,4-E-octenoyl-methionine], for which the IC50 in assay [1] worked out at 0.0019 µM.
Turning to `CC[C@H](C)[C@@H](/C=C/[C@H](C(=O)N[C@H]1CCOC1=O)C(C)C)NC[C@@H](N)CS` [5(S)-2(R)-amino-3-mercaptopropylamino!-6(S)-methyl-2(R)-i-propyl-3,4-E-octenoyl-homoserine lactone], the IC50 in assay [2] lay within 1 to 2.5 µM.
On to `CC[C@H](C)[C@@H](/C=C/[C@H](C(=O)N[C@@H](CCSC)C(=O)OC)C(C)C)NC[C@@H](N)CS` [5(S)-2(R)-amino-3-mercaptopropylamino!-6(S)-methyl-2(R)-i-propyl-3,4-E-octenoyl-methionine, methyl ester], for which the IC50 in assay [2] amounted to 0.1 µM.
Take `CC[C@H](C)[C@@H](/C=C/[C@H](C(=O)N[C@@H](CCSC)C(=O)O)C(C)C)NC[C@@H](N)CS` [5(S)-2(R)-amino-3-mercaptopropylamino!-6(S)-methyl-2(R)-i-propyl-3,4-E-octenoyl-methionine]: the IC50 in assay [1] was determined as 0.02 µM.
Take `CCCC[C@H](/C=C/[C@@H](NC[C@@H](N)CS)[C@@H](C)CC)C(=O)N[C@@H](CCSC)C(=O)OC` [5(S)-2(R)-amino-3-mercaptopropylamino!-6(S)-methyl-2(R)-n-butyl-3,4-E-octenoyl-methionine, methyl ester]: the IC50 in assay [2] was determined as 1 µM.
Regarding `CCC[C@H](/C=C/[C@@H](NC[C@@H](N)CS)[C@@H](C)CC)C(=O)N[C@H]1CCOC1=O` [5(S)-2(R)-amino-3-mercaptopropylamino!-6(S)-methyl-2(R)-n-propyl-3,4-E-octenoyl-homoserine lactone], the IC50 in assay [2] is 5 µM.
For the compound `CCC[C@H](/C=C/[C@@H](NC[C@@H](N)CS)[C@@H](C)CC)C(=O)N[C@@H](CCO)C(=O)O` [5(S)-2(R)-amino-3-mercaptopropylamino!-6(S)-methyl-2(R)-n-propyl-3,4-E-octenoyl-homoserine], the IC50 in assay [1] was 0.004 µM.
In the case of `CC(C)[C@H](/C=C/[C@@H](NC[C@@H](N)CS)C(C)C)C(=O)N[C@H]1CCOC1=O` [5(S)-2(R)-amino-3-mercaptopropylamino!-6-methyl-2(R)-i-propyl-3,4-E-heptenoyl-homoserine lactone], in assay [2], the IC50 came to 1 µM.
With `CC(C)[C@H](/C=C/[C@@H](NC[C@@H](N)CS)C(C)C)C(=O)N[C@@H](CCO)C(=O)O` [5(S)-2(R)-amino-3-mercaptopropylamino!-6-methyl-2(R)-i-propyl-3,4-E-heptenoyl-homoserine], in assay [1], the IC50 was found to be 0.005 µM.
`CC[C@H](C)C(=O)O[C@H]1CCC=C2C=C[C@H](C)[C@H](CC[C@@H]3C[C@@H](O)CC(=O)O3)[C@H]21` [compactin]: the “inhibition of EMG-CoA reductase” value with EMG-CoA reductase is “inhibit EMG-CoA reductase”.
Turning to `CC[C@H](C)C(=O)O[C@H]1C[C@@H](C)C=C2C=C[C@H](C)[C@H](CC[C@@H]3C[C@@H](O)CC(=O)O3)[C@H]21` [lovastatin], the “inhibition of EMG-CoA reductase” value with EMG-CoA reductase is recorded as “inhibit EMG-CoA reductase”.
